Reference: patent publication US20160120877A1, “PHARMACEUTICAL COMPOSITIONS FOR SUSTAINED DELIVERY OF BENZODIAZEPINE ANTAGONISTS” (priority 2010, published 2016)

Experiments:
methamphetamine cravings = conditions: clinical trials, along with hydroxyzine and gabapentin; cited from earlier work
[1] = Dialysis diffusion: effect of sample size; format: physicochemical
Description: (§1) Dialysis tubing cellulose membrane was cut into approximately 8 cm lengths, washed with hot water for 3 hours. Tubing was then treated with 0.3% (w/v) solution of sodium sulfide at 80° C. for 1 minute, washed with hot water (60° C.) for 2 minutes and followed by acidification with 0.2% sulfuric acid. Tubing was then rinsed with hot water to remove the acid. Test formulations were added, the tubing closed with nylon closures and placed in the dialysate. At various time periods, the dialysate was sampled and the flumazenil released measured by HPLC assay.
Experiments were conducted to test the influence of sample size on diffusion rate.
(§2) As described in 1.1 with 600 ml of phosphate buffer pH 4.0 as dialysate.
A=0.125 g of a 3% flumazenil solution in NMP
B=0.250 g of a 3% flumazenil solution in NMP
C=0.500 g of a 3% flumazenil solution in NMP

[2] = Dialysis diffusion: effect of dialysate volume; format: physicochemical; conditions: 0.25 g of 3% solution in NMP
Description: Dissolution apparatus: Vankel VK 7000 (Agilent Technologies Australia)
Dialysis bags: dialysis tubing cellulose membrane from Sigma-Aldrich Australia—average flat width 25 mm, average diameter 16 mm (when full), retains >90% of cytocrome C (M.W. 12.400) in solution over a 10 hrs period.
as §1
Chromatography column: C18-250 mm×4.6 mm×5 μm (Sigma Aldrich Australia)
Mobile phase: H2O pH 2:methanol:tetrahydrofuran (80:13:7)
Injection volume: 10 μl and 100 μl
Experiments were conducted to check the influence of the volume of the dialysis medium (dialysate) on diffusion rate.
A=800 ml of phosphate buffer pH 4.0
B=600 ml of phosphate buffer pH 4.0
0.25 g of 3% flumazenil solution in N-Methyl-2-Pyrrolidinone (NMP)

[3] = Dialysis diffusion: effect of sample concentration; format: physicochemical; conditions: sample A1 (0.25 g of 1.5% solution in NMP), 1 h
Description: as §1
Experiments were conducted to test the effect of sample concentration on diffusion rate.
as §2
A=0.25 g of a 1.5% flumazenil solution in NMP
B=0.25 g of a 3.0% flumazenil solution in NMP
C=0.25 g of a 4.5% flumazenil solution in NMP

Which results are given for `CCOC(=O)c1ncn2c1CN(C)C(=O)c1cc(F)ccc1-2` [flumazenil, ethyl 8-fluoro-5,6-dihydro-5-methyl-6-oxo-4H-imidazo[1,5-a](1,4)benzodiazepine-3-carboxylate]?
methamphetamine cravings (methamphetamine cravings): substantially reduce methamphetamine cravings; % flumazenil released ([1]; sample A1 (0.125 g of 3% solution in NMP), 1 h): 85.8%; % flumazenil released ([1]; sample A1 (0.125 g of 3% solution in NMP), 2 h): 94.9%; % flumazenil released ([1]; sample A1 (0.125 g of 3% solution in NMP), 4 h): 100.1%; % flumazenil released ([1]; sample A1 (0.125 g of 3% solution in NMP), 6 h): 101.8%; % flumazenil released ([1]; sample A1 (0.125 g of 3% solution in NMP), 24 h): 101.6%; % flumazenil released ([1]; sample A2 (0.125 g of 3% solution in NMP), 1 h): 77.9%; % flumazenil released ([1]; sample A2 (0.125 g of 3% solution in NMP), 2 h): 90.8%; % flumazenil released ([1]; sample A2 (0.125 g of 3% solution in NMP), 4 h): 99.1%; % flumazenil released ([1]; sample A2 (0.125 g of 3% solution in NMP), 6 h): 101.3%; % flumazenil released ([1]; sample A2 (0.125 g of 3% solution in NMP), 24 h): 102.0%; % flumazenil released ([1]; sample B1 (0.250 g of 3% solution in NMP), 1 h): 50.9%; % flumazenil released ([1]; sample B1 (0.250 g of 3% solution in NMP), 2 h): 64.7%; % flumazenil released ([1]; sample B1 (0.250 g of 3% solution in NMP), 4 h): 87.0%; % flumazenil released ([1]; sample B1 (0.250 g of 3% solution in NMP), 6 h): 96.3%; % flumazenil released ([1]; sample B1 (0.250 g of 3% solution in NMP), 24 h): 101.3%; % flumazenil released ([1]; sample B2 (0.250 g of 3% solution in NMP), 1 h): 50.9%; % flumazenil released ([1]; sample B2 (0.250 g of 3% solution in NMP), 2 h): 65.2%; % flumazenil released ([1]; sample B2 (0.250 g of 3% solution in NMP), 4 h): 87.6%; % flumazenil released ([1]; sample B2 (0.250 g of 3% solution in NMP), 6 h): 97.8%; % flumazenil released ([1]; sample B2 (0.250 g of 3% solution in NMP), 24 h): 101.3%; % flumazenil released ([1]; sample C1 (0.500 g of 3% solution in NMP), 1 h): 36.6%; % flumazenil released ([1]; sample C1 (0.500 g of 3% solution in NMP), 2 h): 45.5%; % flumazenil released ([1]; sample C1 (0.500 g of 3% solution in NMP), 4 h): 59.3%; % flumazenil released ([1]; sample C1 (0.500 g of 3% solution in NMP), 6 h): 70.4%; % flumazenil released ([1]; sample C1 (0.500 g of 3% solution in NMP), 24 h): 100.8%; % flumazenil released ([1]; sample C2 (0.500 g of 3% solution in NMP), 1 h): 46.5%; % flumazenil released ([1]; sample C2 (0.500 g of 3% solution in NMP), 2 h): 56.0%; % flumazenil released ([1]; sample C2 (0.500 g of 3% solution in NMP), 4 h): 71.1%; % flumazenil released ([1]; sample C2 (0.500 g of 3% solution in NMP), 6 h): 83.1%; % flumazenil released ([1]; sample C2 (0.500 g of 3% solution in NMP), 24 h): 101.0%; % flumazenil released ([2]; A1 (800 ml dialysate pH 4.0), 1 h): 57.6%; % flumazenil released ([2]; A1 (800 ml dialysate pH 4.0), 2 h): 73.1%; % flumazenil released ([2]; A1 (800 ml dialysate pH 4.0), 4 h): 94.5%; % flumazenil released ([2]; A1 (800 ml dialysate pH 4.0), 6 h): 100.9%; % flumazenil released ([2]; A1 (800 ml dialysate pH 4.0), 24 h): 100.7%; % flumazenil released ([2]; A2 (800 ml dialysate pH 4.0), 1 h): 50.3%; % flumazenil released ([2]; A2 (800 ml dialysate pH 4.0), 2 h): 66.0%; % flumazenil released ([2]; A2 (800 ml dialysate pH 4.0), 4 h): 88.6%; % flumazenil released ([2]; A2 (800 ml dialysate pH 4.0), 6 h): 98.9%; % flumazenil released ([2]; A2 (800 ml dialysate pH 4.0), 24 h): 101.7%; % flumazenil released ([2]; B1 (600 ml dialysate pH 4.0), 1 h): 52.2%; % flumazenil released ([2]; B1 (600 ml dialysate pH 4.0), 2 h): 69.2%; % flumazenil released ([2]; B1 (600 ml dialysate pH 4.0), 4 h): 92.7%; % flumazenil released ([2]; B1 (600 ml dialysate pH 4.0), 6 h): 99.2%; % flumazenil released ([2]; B1 (600 ml dialysate pH 4.0), 24 h): 100.64%; % flumazenil released ([2]; B2 (600 ml dialysate pH 4.0), 1 h): 50.5%; % flumazenil released ([2]; B2 (600 ml dialysate pH 4.0), 2 h): 66.5%; % flumazenil released ([2]; B2 (600 ml dialysate pH 4.0), 4 h): 89.2%; % flumazenil released ([2]; B2 (600 ml dialysate pH 4.0), 6 h): 98.0%; % flumazenil released ([2]; B2 (600 ml dialysate pH 4.0), 24 h): 99.2%; time to reach equilibrium ([2]; dialysate A (800 ml)): around 6 hours; time to reach equilibrium ([2]; dialysate B (600 ml)): around 6 hours; % flumazenil released [3]: 92.9%
